Experimental data published in patent US11214803B2, “Modulators of YAP1 expression” (Ionis Pharmaceuticals, Inc., priority 2019, dated 2022).
Strand notation (5' to 3'): a small letter for the sugar, then the base; units joined by * are phosphorothioate-linked, units joined directly phosphodiester-linked; [ ] holds rarer units or linkages, { } end groups; capitals alone tell only the bases. k = constrained ethyl (cEt); [5mC] = 5-methylcytosine; d = 2'-deoxy (DNA)

test system: Yap1 mRNA; assay: Antisense inhibition of human Yap1 in A-431 cells by cEt gapmers, single dose (Example 2, RTS4814); format: cell-based; settings: Table 5; A-431 cells, 5,000 cells per well, free uptake, 2,000 nM modified oligonucleotide, approx. 48 hours; RTS4814; normalized to RIBOGREEN; Yap1 mRNA relative to untreated control cells
In short: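 Each 16-nucleoside gapmer (ten-deoxy gap, three-cEt wings) is tested once at 2,000 nM in A-431 cells by free uptake. Yap1 mRNA after about 48 hours is measured by quantitative RT-PCR and expressed relative to untreated control.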

Row | Substance | YAP1 (% UTC)
1 | 716572 (k[5mC]*kA*kG*dT*dA*dA*dG*dA*dA*dG*d[5mC]*d[5mC]*dA*kA*kA*kA; antisense) [Compound 716572] | 122
2 | 716578 (kA*kA*k[5mC]*dT*dT*dT*d[5mC]*dA*d[5mC]*dA*dT*dA*dA*kA*k[5mC]*kT; antisense) [Compound 716578] | 102
3 | 716464 (kT*kA*k[5mC]*dT*dT*d[5mC]*dA*dA*dA*d[5mC]*dA*dT*d[5mC]*kT*kG*k[5mC]; antisense) [Compound 716464] | 62

same assay, conditions: Table 6; A-431 cells, 5,000 cells per well, free uptake, 2,000 nM modified oligonucleotide, approx. 48 hours; RTS4814; normalized to RIBOGREEN; Yap1 mRNA relative to untreated control cells

Row | Substance | YAP1 (% UTC)
4 | 716417 (kT*kG*kT*dA*dA*dG*dA*dA*dA*dG*d[5mC]*dT*dT*kT*k[5mC]*kT; antisense) [Compound 716417] | 78
5 | 716462 (kT*kT*kA*dA*dA*d[5mC]*dT*dA*d[5mC]*d[5mC]*dA*dG*dT*kG*kA*kA; antisense) [Compound 716462] | 86
6 | 716528 (antisense kT*kT*kA*dG*dG*dT*d[5mC]*dT*d[5mC]*d[5mC]*dT*dT*d[5mC]*kA*kG*kG) [Compound 716528] | 70
7 | 716534 (antisense kG*kA*kT*dT*dA*dT*dA*dA*dA*dA*dT*dT*dG*kG*kT*kT) [Compound 716534] | 90
8 | 716483 (k[5mC]*kA*kA*dA*dA*d[5mC]*d[5mC]*dT*dT*dA*dT*dA*dG*kT*kA*kT; antisense) [Compound 716483] | 159
9 | 716435 (kA*k[5mC]*kA*dA*d[5mC]*dT*dG*dT*dT*dG*dA*dA*d[5mC]*kA*kA*kA; antisense) [Compound 716435] | 45
10 | 716504 (kA*kT*kA*dA*dA*dA*dG*d[5mC]*d[5mC]*dT*dT*dA*dG*kA*kG*kT; antisense) [Compound 716504] | 112

same assay, conditions: Table 18; A-431 cells, 5,000 cells per well, free uptake, 2,000 nM modified oligonucleotide, approx. 48 hours; RTS4814; normalized to RIBOGREEN; Yap1 mRNA as percent of untreated control

Row | Substance | YAP1 (% UTC)
11 | 1075172 (antisense k[5mC]*kT*kT*dT*dA*d[5mC]*dA*dT*dG*dA*dA*d[5mC]*dT*kG*kA*kT) [Compound 1075172] | 14
12 | 1074148 (antisense kG*kT*kG*dG*dA*dG*dA*dA*dG*d[5mC]*dG*dG*d[5mC]*kG*kA*k[5mC]) [Compound 1074148] | 66
13 | 1074852 (antisense kA*kA*kT*dT*dG*dT*dT*dA*dT*dG*dA*dT*dA*kG*kG*k[5mC]) [Compound 1074852] | 4

same assay, conditions: Table 20; Yap1 mRNA, percent of untreated control; 3-10-3 cEt gapmers targeting SEQ ID NO.: 1 and 2

Row | Substance | YAP1 (% UTC)
14 | 1075270 (antisense k[5mC]*kT*kT*dT*dA*dT*dT*dA*dA*d[5mC]*d[5mC]*dT*dG*kG*kA*kG) [Compound 1075270] | 18
15 | 1076486 (antisense kG*kA*kA*dA*d[5mC]*dG*dA*dA*dA*d[5mC]*dG*dG*dG*kA*kA*kA) [Compound 1076486] | 5
16 | 1076454 (kT*kA*kA*dA*d[5mC]*dT*dA*dA*dT*d[5mC]*d[5mC]*d[5mC]*dA*kT*kA*kT; antisense) [Compound 1076454] | 35

same assay, conditions: Table 21; Yap1 mRNA, percent of untreated control; 3-10-3 cEt gapmers targeting SEQ ID NO.: 1 and 2

Row | Substance | YAP1 (% UTC)
17 | 1075207 (antisense k[5mC]*kT*kA*dT*dT*dA*dA*dA*dT*dG*dA*dG*d[5mC]*kA*k[5mC]*k[5mC]) [Compound 1075207] | 4
18 | 1074119 (antisense kG*k[5mC]*kA*d[5mC]*dT*d[5mC]*dG*dG*dA*d[5mC]*d[5mC]*dT*dG*k[5mC]*kG*kG) [Compound 1074119] | 71
19 | 1075751 (kG*kA*kG*dG*dA*dA*d[5mC]*dA*dA*dG*dA*dT*d[5mC]*kT*k[5mC]*kA; antisense) [Compound 1075751] | 72
20 | 1075399 (antisense k[5mC]*kA*kT*dA*dT*dA*dT*dA*dT*dG*dG*d[5mC]*d[5mC]*k[5mC]*kT*kT) [Compound 1075399] | 15

same assay, conditions: Table 22; Yap1 mRNA as percent of untreated control; 3-10-3 cEt gapmers; single dose

Row | Substance | YAP1 (% UTC)
21 | 1074952 (antisense kG*kT*kT*dT*dT*dT*dG*dT*d[5mC]*dA*dT*d[5mC]*dA*kG*kG*kT) [Compound 1074952] | 42
22 | 1075400 (antisense kT*kA*kG*d[5mC]*dA*dA*dT*dA*dG*dT*d[5mC]*dA*dG*kG*kT*kA) [Compound 1075400] | 11

same assay, conditions: Table 23; Yap1 mRNA as percent of untreated control; 3-10-3 cEt gapmers; single dose

Row | Substance | YAP1 (% UTC)
23 | 1074473 (k[5mC]*kA*kA*d[5mC]*d[5mC]*d[5mC]*d[5mC]*d[5mC]*d[5mC]*d[5mC]*dA*d[5mC]*d[5mC]*kG*kA*k[5mC]; antisense) [Compound 1074473] | 82
24 | 1076105 (kT*kA*k[5mC]*dG*dA*dA*dA*dT*dA*dG*dT*dA*dA*k[5mC]*kT*kG; antisense) [Compound 1076105] | 13
25 | 1074313 (antisense kT*kG*kA*dT*dA*dT*dT*d[5mC]*d[5mC]*dG*d[5mC]*dA*dT*kT*kG*k[5mC]) [Compound 1074313] | 5
26 | 1075817 (k[5mC]*k[5mC]*kT*dA*dA*dA*dG*dA*dA*dG*dT*d[5mC]*dT*kT*kG*kG; antisense) [Compound 1075817] | 100

same assay, conditions: Table 24; Yap1 mRNA as percent of untreated control; 3-10-3 cEt gapmers targeting SEQ ID NO.: 1, and 2

Row | Substance | YAP1 (% UTC)
27 | 1074762 (kG*k[5mC]*kT*dA*d[5mC]*d[5mC]*d[5mC]*dA*dA*dT*dA*d[5mC]*dA*kA*k[5mC]*k[5mC]; antisense) [Compound 1074762] | 6
28 | 1075274 (antisense kA*kA*kT*dA*dA*dT*d[5mC]*d[5mC]*dA*dG*d[5mC]*d[5mC]*dT*kA*kG*kG) [Compound 1075274] | 86
29 | 1075402 (antisense kG*kA*kG*d[5mC]*dA*dA*d[5mC]*dA*d[5mC]*dA*dA*dG*d[5mC]*kA*kT*kA) [Compound 1075402] | 45
30 | 1075882 (kG*kA*kA*dA*dA*dT*d[5mC]*d[5mC]*dT*dG*dA*dT*dT*kA*kA*k[5mC]; antisense) [Compound 1075882] | 73

same assay, conditions: Table 25; Yap1 mRNA as percent of untreated control; 3-10-3 cEt gapmers targeting SEQ ID NO.: 1, and 2

Row | Substance | YAP1 (% UTC)
31 | 1075851 (kG*k[5mC]*k[5mC]*dG*dA*dA*dT*dA*dT*dG*dG*dG*dA*kA*kA*kA; antisense) [Compound 1075851] | 70
32 | 1074571 (antisense kT*kA*kT*dG*dA*dA*d[5mC]*d[5mC]*dT*dA*d[5mC]*dT*d[5mC]*kA*k[5mC]*kT) [Compound 1074571] | 37
33 | 1075595 (kT*kA*kT*dA*dA*dT*dA*d[5mC]*dA*dT*d[5mC]*dT*d[5mC]*k[5mC]*k[5mC]*k[5mC]; antisense) [Compound 1075595] | 50
34 | 1074283 (antisense kA*kA*kA*dA*d[5mC]*dG*dA*dG*dG*dG*dT*d[5mC]*dA*kA*kG*k[5mC]) [Compound 1074283] | 12

same assay, conditions: Table 33; Yap1 mRNA, percent of untreated control; 3-10-3 cEt gapmers targeting SEQ ID NO.: 1, and 2

Row | Substance | YAP1 (% UTC)
35 | 1075795 (kG*kT*kA*dA*dT*dT*dA*dT*dA*dT*dA*d[5mC]*d[5mC]*k[5mC]*kA*k[5mC]; antisense) [compound 1075795] | 66
36 | 1074803 (kA*kG*kG*d[5mC]*dA*d[5mC]*dT*dA*d[5mC]*dA*dT*dT*dT*kA*kG*kA; antisense) [compound 1074803] | 32
37 | 1075635 (antisense kA*kA*kT*dA*dA*dA*d[5mC]*dA*d[5mC]*d[5mC]*dT*d[5mC]*dG*k[5mC]*k[5mC]*kA) [compound 1075635] | 97
38 | 1075923 (antisense kT*kT*kT*dA*dA*dT*dA*d[5mC]*dT*d[5mC]*dT*d[5mC]*dT*kG*kG*kG) [compound 1075923] | 42
39 | 1076243 (kA*kT*kA*dT*dT*d[5mC]*dG*dA*dT*dG*dT*dA*dA*k[5mC]*kT*kT; antisense) [compound 1076243] | 41
40 | 1075123 (k[5mC]*kT*kT*dT*dA*dG*dG*dA*dA*dA*dG*dG*dG*kT*kA*kT; antisense) [compound 1075123] | 21

same assay, conditions: Yap1 mRNA as percent of untreated control; A-431 cells; 3-10-3 cEt gapmers targeting SEQ ID NO.: 1, and 2; Table 30

Row | Substance | YAP1 (% UTC)
41 | 1075536 (kT*kT*kA*dA*dT*dT*dA*d[5mC]*d[5mC]*d[5mC]*dA*dA*dG*kG*kA*k[5mC]; antisense) [compound 1075536] | 55
42 | 1074384 (kT*kT*k[5mC]*dA*dA*dG*dG*dT*dA*dG*dT*d[5mC]*dT*kG*kG*kG; antisense) [compound 1074384] | 35
43 | 1075344 (antisense kT*kA*kA*d[5mC]*dT*dA*dA*dA*dA*dG*dG*dG*dA*kG*kT*kA) [compound 1075344] | 91

same assay, conditions: Yap1 mRNA as percent of untreated control; A-431 cells; 3-10-3 cEt gapmers targeting SEQ ID NO.: 1, and 2; Table 31

Row | Substance | YAP1 (% UTC)
44 | 1074161 (kG*kG*k[5mC]*dG*dA*dG*d[5mC]*dG*dA*dG*dG*dG*d[5mC]*kT*kA*k[5mC]; antisense) [compound 1074161] | 98
45 | 1075537 (k[5mC]*kT*kT*dT*dA*dA*dT*dT*dA*d[5mC]*d[5mC]*d[5mC]*dA*kA*kG*kG; antisense) [compound 1075537] | 82
46 | 1074993 (antisense kT*k[5mC]*kT*dA*dA*dT*d[5mC]*dA*dA*d[5mC]*dA*d[5mC]*dT*kG*kG*kA) [compound 1074993] | 65
47 | 1075953 (kA*kA*k[5mC]*d[5mC]*dT*dA*dT*dA*dT*dA*d[5mC]*d[5mC]*dT*kG*k[5mC]*kT; antisense) [compound 1075953] | 36
